Measurements from ChEMBL document CHEMBL4190180 (Medchemcomm, 2016).

Legend:
[1] = Potentiation of doxorubicin-induced cytotoxicity in mouse L5178 cells assessed as combination index at ED50 in presence of 326:1 ratio of doxorubicin to test compound after 48 hrs by MTT assay; assay type: functional
[2] = Potentiation of doxorubicin-induced cytotoxicity in mouse L5178 cells assessed as combination index at ED75 in presence of 163:1 ratio of doxorubicin to test compound after 48 hrs by MTT assay; assay type: functional
MDA-MB-361 = assay: Antiproliferative activity against human MDA-MB-361 cells after 72 hrs by MTT assay; assay type: functional, cell-based; conditions: MDA-MB-361, 72 h
[3] = biological target: T1, ATP-dependent translocase ABCB1 (Homo sapiens, UniProt P08183); assay: Inhibition of human ABCB1 expressed in mouse L5178 cells assessed as potentiation of doxorubicin-induced cytotoxicity by measuring combination index at ED90 in presence of 10.2:1 ratio of doxorubicin to test compound after 48 hrs by MTT assay; assay type: cell-based
T1 sequence (P08183 whole entry): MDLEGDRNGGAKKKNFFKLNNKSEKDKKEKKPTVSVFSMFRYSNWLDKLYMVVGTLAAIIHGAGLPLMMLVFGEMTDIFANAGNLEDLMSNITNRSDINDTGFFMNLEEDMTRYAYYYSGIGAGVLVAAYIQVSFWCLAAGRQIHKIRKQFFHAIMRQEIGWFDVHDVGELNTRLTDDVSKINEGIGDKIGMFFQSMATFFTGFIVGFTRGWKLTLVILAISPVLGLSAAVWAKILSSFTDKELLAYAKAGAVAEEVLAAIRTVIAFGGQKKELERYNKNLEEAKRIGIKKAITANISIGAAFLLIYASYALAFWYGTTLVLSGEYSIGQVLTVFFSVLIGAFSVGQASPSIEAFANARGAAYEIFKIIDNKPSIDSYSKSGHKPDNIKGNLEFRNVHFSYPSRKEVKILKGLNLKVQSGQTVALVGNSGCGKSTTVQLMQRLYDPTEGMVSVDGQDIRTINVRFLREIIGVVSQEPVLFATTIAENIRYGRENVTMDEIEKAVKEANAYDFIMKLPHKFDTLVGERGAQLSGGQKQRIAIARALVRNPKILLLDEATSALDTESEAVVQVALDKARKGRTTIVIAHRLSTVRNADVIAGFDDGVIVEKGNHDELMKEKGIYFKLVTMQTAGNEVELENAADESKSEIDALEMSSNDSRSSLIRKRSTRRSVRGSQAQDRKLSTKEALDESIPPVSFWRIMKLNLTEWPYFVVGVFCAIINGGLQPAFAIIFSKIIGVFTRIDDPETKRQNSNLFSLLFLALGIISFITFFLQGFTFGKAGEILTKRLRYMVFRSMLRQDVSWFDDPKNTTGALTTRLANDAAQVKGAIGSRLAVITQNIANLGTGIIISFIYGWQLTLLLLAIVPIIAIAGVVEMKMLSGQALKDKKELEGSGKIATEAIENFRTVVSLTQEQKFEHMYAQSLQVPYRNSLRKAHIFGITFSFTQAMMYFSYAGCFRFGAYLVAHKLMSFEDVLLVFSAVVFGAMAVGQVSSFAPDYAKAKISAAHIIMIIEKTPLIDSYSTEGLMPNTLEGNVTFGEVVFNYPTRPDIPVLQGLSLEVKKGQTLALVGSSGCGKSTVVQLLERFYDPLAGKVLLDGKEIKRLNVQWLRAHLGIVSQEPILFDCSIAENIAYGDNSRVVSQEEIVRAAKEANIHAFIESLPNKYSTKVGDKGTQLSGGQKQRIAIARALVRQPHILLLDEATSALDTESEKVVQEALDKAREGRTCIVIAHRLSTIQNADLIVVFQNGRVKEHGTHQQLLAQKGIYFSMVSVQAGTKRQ

[4] = biological target: T1, ATP-dependent translocase ABCB1; assay: Inhibition of human ABCB1 expressed in mouse L5178 cells assessed as potentiation of doxorubicin-induced cytotoxicity by measuring combination index at ED90 in presence of 20.4:1 ratio of doxorubicin to test compound after 48 hrs by MTT assay; assay type: cell-based
[5] = Potentiation of doxorubicin-induced cytotoxicity in mouse L5178 cells assessed as combination index at ED75 in presence of 81.5:1 ratio of doxorubicin to test compound after 48 hrs by MTT assay; assay type: functional
[6] = Antiproliferative activity against mouse L5178 cells after 72 hrs by MTT assay; assay type: functional, cell-based; conditions: L5178, 72 h
SH-SY5Y = assay: Antiproliferative activity against human SH-SY5Y cells after 48 hrs by MTT assay
[7] = biological target: T1, ATP-dependent translocase ABCB1; assay: Inhibition of human ABCB1 expressed in mouse L5178 cells assessed as potentiation of doxorubicin-induced cytotoxicity by measuring combination index at ED90 in presence of 81.5:1 ratio of doxorubicin to test compound after 48 hrs by MTT assay; assay type: cell-based
[8] = biological target: T1, ATP-dependent translocase ABCB1; assay: Inhibition of human ABCB1 expressed in mouse L5178 cells assessed as potentiation of doxorubicin-induced cytotoxicity by measuring combination index at ED50 in presence of 81.5:1 ratio of doxorubicin to test compound after 48 hrs by MTT assay; assay type: cell-based
[9] = biological target: T1, ATP-dependent translocase ABCB1; assay: Inhibition of human ABCB1 expressed in mouse L5178 cells assessed as rhodamine-123 accumulation by measuring fluorescence activity ratio at 20 uM pretreated for 10 mins followed by rhodamine-123 addition measured after 20 mins by flow cytometric analysis; assay type: cell-based
T47D = assay: Antiproliferative activity against human T47D cells after 72 hrs by MTT assay; assay type: functional, cell-based
[10] = Antiproliferative activity against mouse L5178 cells harboring human ABCB1 after 72 hrs by MTT assay; assay type: functional, cell-based; conditions: L5178, 72 h
[11] = Potentiation of doxorubicin-induced cytotoxicity in mouse L5178 cells assessed as combination index at ED90 in presence of 81.5:1 ratio of doxorubicin to test compound after 48 hrs by MTT assay; assay type: functional
[12] = biological target: T1, ATP-dependent translocase ABCB1; assay: Inhibition of human ABCB1 expressed in mouse L5178 cells assessed as potentiation of doxorubicin-induced cytotoxicity by measuring combination index at ED75 in presence of 81.5:1 ratio of doxorubicin to test compound after 48 hrs by MTT assay; assay type: cell-based
[13] = biological target: T1, ATP-dependent translocase ABCB1; assay: Inhibition of human ABCB1 expressed in mouse L5178 cells assessed as potentiation of doxorubicin-induced cytotoxicity by measuring combination index at ED50 in presence of 10.2:1 ratio of doxorubicin to test compound after 48 hrs by MTT assay; assay type: cell-based
[14] = biological target: T1, ATP-dependent translocase ABCB1; assay: Inhibition of human ABCB1 expressed in mouse L5178 cells assessed as potentiation of doxorubicin-induced cytotoxicity by measuring combination index at ED50 in presence of 20.4:1 ratio of doxorubicin to test compound after 48 hrs by MTT assay; assay type: cell-based
MDA-MB-231 = assay: Antiproliferative activity against human MDA-MB-231 cells after 72 hrs by MTT assay; assay type: functional, cell-based; conditions: MDA-MB-231, 72 h
[15] = Potentiation of doxorubicin-induced cytotoxicity in mouse L5178 cells assessed as combination index at ED50 in presence of 81.5:1 ratio of doxorubicin to test compound after 48 hrs by MTT assay; assay type: functional
[16] = biological target: T1, ATP-dependent translocase ABCB1; assay: Inhibition of human ABCB1 expressed in mouse L5178 cells assessed as potentiation of doxorubicin-induced cytotoxicity by measuring combination index at ED75 in presence of 10.2:1 ratio of doxorubicin to test compound after 48 hrs by MTT assay; assay type: cell-based
[17] = biological target: T1, ATP-dependent translocase ABCB1; assay: Inhibition of human ABCB1 expressed in mouse L5178 cells assessed as potentiation of doxorubicin-induced cytotoxicity by measuring combination index at ED75 in presence of 20.4:1 ratio of doxorubicin to test compound after 48 hrs by MTT assay; assay type: cell-based
[18] = Potentiation of doxorubicin-induced cytotoxicity in mouse L5178 cells assessed as combination index at ED50 in presence of 163:1 ratio of doxorubicin to test compound after 48 hrs by MTT assay; assay type: functional
[19] = Potentiation of doxorubicin-induced cytotoxicity in mouse L5178 cells assessed as combination index at ED90 in presence of 326:1 ratio of doxorubicin to test compound after 48 hrs by MTT assay; assay type: functional
[20] = Potentiation of doxorubicin-induced cytotoxicity in mouse L5178 cells assessed as combination index at ED75 in presence of 326:1 ratio of doxorubicin to test compound after 48 hrs by MTT assay; assay type: functional
[21] = Potentiation of doxorubicin-induced cytotoxicity in mouse L5178 cells assessed as combination index at ED90 in presence of 163:1 ratio of doxorubicin to test compound after 48 hrs by MTT assay; assay type: functional
MCF7 = assay: Antiproliferative activity against human MCF7 cells after 72 hrs by MTT assay; assay type: functional, cell-based; conditions: MCF7, 72 h
[22] = biological target: T1, ATP-dependent translocase ABCB1; assay: Inhibition of human ABCB1 expressed in mouse L5178 cells assessed as rhodamine-123 accumulation by measuring fluorescence activity ratio at 2 uM pretreated for 10 mins followed by rhodamine-123 addition measured after 20 mins by flow cytometric analysis; assay type: cell-based
[23] = Selectivity ratio of IC50 for human MCF7 cells to IC50 for human T47D cells; assay type: functional

Row | Structure (SMILES) | CI [1] | CI [2] | IC50 (MDA-MB-361) [µM] | CI [3] | CI [4] | CI [5] | IC50 [6] [µM] | IC50 (SH-SY5Y) [µM] | CI [7] | CI [8] | Ratio [9] | IC50 (T47D) [µM] | IC50 [10] [µM] | CI [11] | CI [12] | CI [13] | CI [14] | IC50 (MDA-MB-231) [µM] | CI [15] | CI [16] | further results
1 | CC(C)(F)CC[C@@H]1OC(C)(C)O[C@]1(C)[C@H]1CC[C@@]2(O)C3=CC(=O)[C@@H]4C[C@H]5OC(C)(C)O[C@H]5C[C@]4(C)[C@H]3CC[C@]12C | 1.04 | 0.76 | 30.9 | 0.16 | 0.19 | 0.66 | 48.3 | 70.7 | 0.33 | 0.35 | 38.62 | 70.3 | 50.1 | 0.56 | 0.33 | 0.19 | 0.19 | 48.9 | 0.8 | 0.17 | CI [17]: 0.19; CI [18]: 0.85; CI [19]: 0.91; CI [20]: 0.96; CI [21]: 0.71; IC50 (MCF7): 63.1 µM; Ratio [22]: 1.59
2 | CC(C)(F)CC[C@@H]1OC(C)(C)O[C@]1(C)[C@H]1CC=C2C3=CC(=O)[C@@H]4C[C@H]5OC(C)(C)O[C@H]5C[C@]4(C)[C@H]3CC[C@@]21C | 0.79 | 0.87 | 11.8 | 0.22 | 0.28 | 0.8 | 14.1 | 18.8 | 0.69 | 0.78 | 109.37 | 17.4 | 17.4 | 0.89 | 0.73 | 0.56 | 0.48 | 50.2 | 0.73 | 0.34 | CI [17]: 0.36; CI [18]: 0.8; CI [19]: 0.9; CI [20]: 0.84; CI [21]: 0.95; IC50 (MCF7): 43.8 µM; Ratio IC50 [23]: 3; Ratio [22]: 31.15
3 | COc1cccc2c1C(=O)c1c(O)c3c(c(O)c1C2=O)C[C@@](O)(C(=O)CO)C[C@@H]3O[C@H]1C[C@H](N)[C@H](O)[C@H](C)O1 [DOXORUBICIN] |  |  |  |  |  |  | 0.23 | 0.14 |  |  |  |  | 3.54 |  |  |  |  |  |  |  | 
4 | CC(C)(O)CC[C@@H]1OC(C)(C)O[C@]1(C)[C@H]1CC=C2C3=CC(=O)[C@@H]4C[C@H]5OC(C)(C)O[C@H]5C[C@]4(C)[C@H]3CC[C@@]21C | 0.9 | 0.89 | 13.8 | 0.39 | 0.37 | 0.89 | 14.6 | 20.8 | 0.69 | 1.09 | 57.36 | 10.9 | 19.3 | 0.82 | 0.87 | 0.55 | 0.54 | 38.5 | 0.99 | 0.45 | CI [17]: 0.44; CI [18]: 0.93; CI [19]: 0.73; CI [20]: 0.81; CI [21]: 0.86; IC50 (MCF7): 30.1 µM; Ratio IC50 [23]: 3; Ratio [22]: 1.28
5 | CC(C)(O)CC[C@@H]1OC(C)(C)O[C@]1(C)[C@H]1CC[C@@]2(O)C3=CC(=O)[C@@H]4C[C@H]5OC(C)(C)O[C@H]5C[C@]4(C)[C@H]3CC[C@]12C | 0.61 | 0.55 | 69.2 | 0.11 | 0.07 | 0.71 | 82.9 | 127 | 0.12 | 0.39 | 11.28 | 84.7 | 106 | 0.68 | 0.22 | 0.31 | 0.27 | 106 | 0.74 | 0.18 | CI [17]: 0.14; CI [18]: 0.67; CI [19]: 0.51; CI [20]: 0.55; CI [21]: 0.46; IC50 (MCF7): 75.1 µM; Ratio [22]: 3.33
6 | CC(C)(F)CC[C@@H]1OC(C)(C)O[C@]1(C)[C@H]1CC[C@@]2(F)C3=CC(=O)[C@@H]4C[C@H]5OC(C)(C)O[C@H]5C[C@]4(C)[C@H]3CC[C@]12C | 0.72 | 0.44 | 53.8 | 0.06 | 0.07 | 0.42 | 88.6 | 126 | 0.11 | 0.24 | 89.78 | 49.2 | 82.3 | 0.27 | 0.16 | 0.23 | 0.21 | 98.4 | 0.7 | 0.11 | CI [17]: 0.12; CI [18]: 0.6; CI [19]: 0.52; CI [20]: 0.59; CI [21]: 0.34; IC50 (MCF7): 128 µM; Ratio IC50 [23]: 3; Ratio [22]: 11.02
